Assay results taken from patent US9073835B2, “N-acylthiourea and N-acylurea inhibitors of the Hedgehog protein signalling pathway” (Centre National De La Recherche Scientifique, priority 2008, dated 2015).

Test system: Hedgehog protein signaling pathway
Assay: Inhibition of SAG-induced alkaline phosphatase activity (differentiation) in C3H10T1/2 cells
Assay type: cell-based
Details: Mus musculus; for inhibition at 10 µM: C3H 10T1/2, 10 μM test compound, percentage of alkaline phosphatase activity induced by SAG; for IC50: C3H 10T1/2, after induction by 0.1 μM SAG
Description: The effect of compounds with formula (I) as claimed in the invention on inhibition of the Hedgehog protein signaling pathway was determined by analysis of differentiation in the pluripotent fibroblast cell line C3H10T1/2 after activation of this pathway in these cells using a synthetic activator: SAG.
The compounds with formula (I) to be tested were dissolved in dimethylsulfoxide to a concentration of 10 mM, then stored at a temperature of −20° C. until use.
The pluripotent fibroblast cell line C3H10T1/2 (ATCC) was cultivated under the conditions recommended by the ATCC. These cells were activated using 0.1 μM of SAG, employing the methods described by Chen et al., Proc. Natl. Acad. Sci. USA, 2002, 99, 14071 and Frank-Kamenetsky et al., J. Biol., 2002, 1, 10.
Activation with SAG provokes differentiation of the cell line and allows them to express alkaline phosphatase. It is then possible to measure the activity of the Hedgehog protein signaling pathway by measuring the alkaline phosphatase activity.
The C3H10T1/2 cells were plated onto 96-well plates at a density of […], 24 hours before addition of the test compounds in a concentration of 1 nM to 30 μM and in the presence of 0.1 μM of SAG using DMEM supplemented with 10% fetal calf serum as the culture medium. The tests were carried out in quadruplicate. The plates were then incubated for 5-6 days at a temperature of 37° C. in an atmosphere of 5% CO2. The cells were washed in a cold phosphate buffer (“Phosphate Buffer Serum”: PBS) then lysed by sonication at 4° C. in 50 μl of a solution containing 0.9% of NaCl and 0.2% of Triton X-100.
By way of comparison, the activity of a known inhibitor of the Hedgehog protein signaling pathway, CURIS 61 414, as described, for example, by Frank-Kamenetsky M. et al. (J. Biol., 2002, 1, 10), was tested under the same conditions as those used to test the various compounds with formula (I) as claimed in the invention.
The alkaline phosphatase activity measurement in the lysates obtained was then carried out using the method described by Pepinsky et al. (J. Biol. Chem., 1998, 273, 14037). After adding 100 μl of reaction buffer (200 mM Tris-HCl; pH 10.5; 0.4 M of 2-amino-2-methylpropanol and 8 mM of MgCl2) and 50 μl of substrate (4 mM of disodium p-nitrophenyl phosphate), the lysates were incubated at 37° C. for 30-60 min, then the optical density was read at a wavelength of 415 nm.

IC50	SMILES	inhibition at 10 µM
1 to 3 µM	COc1cc(C(=O)NC(=S)Nc2cccc(NC(=O)c3ccccc3Cl)c2)cc(OC)c1OC [Compound 2, N-[[[3-(2-chloro-benzoylamino)phenyl]amino]thioxomethyl]-3,4,5-methoxy-benzamide]	> 80%
1 to 3 µM	COc1cc(C(=O)NC(=S)Nc2cccc(-c3cn4ccsc4n3)c2)cc(OC)c1OC [Compound 58, N-(3-(imidazo[2,1-b]thiazol-6-yl)phenylcarbamothioyl)-3,4,5-trimethoxybenzamide]	> 80%
–	COc1cc(C(=O)NC(=O)Nc2cccc(NC(=O)c3ccc(-c4ccccc4)cc3)c2)cc(OC)c1OC [Compound 7, N-[[[3-(4-phenyl-benzoylamino)phenyl]amino]oxomethyl]-3,4,5-methoxy-benzamide]	20 to 80%
1 to 3 µM	COc1cccc(C(=O)Nc2cccc(NC(=S)NC(=O)c3cc(OC)c(OC)c(OC)c3)c2)c1 [Compound 3, N-[[[3-(3-methoxy-benzoylamino)phenyl]amino]thioxomethyl]-3,4,5-methoxy-benzamide]	> 80%
1 to 3 µM	COc1cc(C(=O)NC(=S)Nc2cccc(-n3ccc4ccccc43)c2)cc(OC)c1OC [Compound 57, N-(3-(1H-indol-1-yl)phenylcarbamothioyl)-3,4,5-trimethoxybenzamide]	> 80%
–	COc1cc(C(=O)NC(=S)Nc2cc(Br)cc(C(=O)Nc3ccccc3)c2)cc(OC)c1OC [Compound 41]	20 to 80%
0.01 to 1 µM	COc1cc(C(=O)NC(=S)Nc2cccc(NC(=O)c3ccc(-c4ccccc4)cc3)c2)cc(OC)c1OC [Compound 5, N-[[[3-(4-phenyl-benzoylamino)phenyl]amino]thioxomethyl]-3,4,5-methoxy-benzamide]	20 to 80%
1 to 3 µM	COc1cc(C(=O)NC(=S)Nc2ccc(Cl)c(C(=O)Nc3ccc(N(C)C)cc3)c2)cc(OC)c1OC [Compound 39]	> 80%
–	CCOc1cc(C(=O)NC(=O)Nc2cccc(NC(=O)c3ccccc3)c2)cc(OCC)c1OCC [Compound 29, N-[[[3-(benzoylamino)phenyl]amino]oxomethyl]-3,4,5-ethoxy-benzamide]	20 to 80%
–	COc1cc(C(=O)NC(=O)Nc2ccc(Cl)c(C(=O)Nc3ccccc3)c2)cc(OC)c1OC [Compound 44]	20 to 80%
1 to 3 µM	COc1cc(C(=O)NC(=S)Nc2cccc(NC(=O)c3ccccc3)c2)cc2c1OCO2 [Compound 21, N-[[[3-(benzoylamino)phenyl]amino]thioxomethyl]-3,4-methylenedioxy-5-methoxy-benzamide]	> 80%
–	COc1cc(C(=O)NC(=S)Nc2ccc(C)c(NC(=O)c3ccccc3)c2)cc(OC)c1OC [Compound 27, N-[[[4-methyl-3-(benzoylamino)phenyl]amino]thioxomethyl]-3,4,5-Methoxy-benzamide]	20 to 80%
–	COc1cc(C(=O)NC(=O)Nc2ccc(Cl)c(NC(=O)c3ccc(-c4ccccc4)cc3)c2)cc(OC)c1OC [Compound 37, N-[[[4-Chloro-3-(4-phenyl-benzoylamino)phenyl]amino]oxomethyl]-3,4,5-methoxy-benzamide]	20 to 80%
–	COc1cc(C(=O)NC(=O)Nc2cccc(NC(=O)c3ccccc3)c2)cc2c1OCO2 [Compound 30, N-[[[3-(benzoylamino)phenyl]amino]oxomethyl]-3,4-methylenedioxy-5-methoxy-benzamide]	5 to 20%
0.01 to 1 µM	CCOc1cc(C(=O)NC(=S)Nc2cccc(NC(=O)c3ccccc3)c2)cc(OCC)c1OCC [Compound 23, N-[[[3-(benzoylamino)phenyl]amino]thioxomethyl]-3,4,5-ethoxy-benzamide]	> 80%
0.01 to 1 µM	COc1cc(C(=O)NC(=O)Nc2cccc(-c3cc4ccccc4[nH]3)c2)cc(OC)c1OC [Compound 53, N-(3-(1H-indol-2-yl)phenylcarbamoyl)-3,4,5-trimethoxybenzamide]	> 80%
–	COc1cc(C(=O)NC(=O)Nc2cccc(NC(=O)c3ccc(Cl)cc3)c2)cc(OC)c1OC [Compound 47, N-[[[-3-(4-chloro-benzoylamino)phenyl]amino]oxomethyl]-3,4,5-methoxy-benzamide]	> 80%

IC50	SMILES	inhibition at 10 µM
–	COc1ccc(NC(=O)c2cc(NC(=S)NC(=O)c3cc(OC)c(OC)c(OC)c3)ccc2Cl)cc1 [Compound 40]	20 to 80%
–	COc1cc(C(=O)NC(=S)Nc2cccc(NC(=O)c3ccncc3)c2)cc(OC)c1OC [Compound 11, N-[[[3-(4-pyridocarboxylamino)phenyl]amino]thioxomethyl]-3,4,5-methoxy-benzamide]	> 80%
1 to 3 µM	COc1cc(OC)cc(C(=O)NC(=S)Nc2cccc(NC(=O)c3ccccc3)c2)c1 [Compound 18, N-[[[3-(benzoylamino)phenyl]amino]thioxomethyl]-3,5-methoxy-benzamide]	> 80%
–	COc1cc(C(=O)NC(=S)Nc2ccc(C)c(-c3nc4ccccc4[nH]3)c2)cc(OC)c1OC [Compound 56, N-(3-(1H-benzo[d]imidazol-2-yl)-4-methylphenylcarbamothioyl)-3,4,5-trimethoxybenzamide]	20 to 80%
–	COc1cc(C(=O)NC(=O)Nc2ccc(Cl)c(NC(=O)c3ccccc3)c2)cc(OC)c1OC [Compound 33, N-[[[4-chloro-3-(benzoylamino)phenyl]amino]oxomethyl]-3,4,5-methoxy-benzamide]	20 to 80%
–	COc1cc(C(=O)NC(=S)Nc2ccc(F)c(NC(=O)c3ccccc3)c2)cc(OC)c1OC [Compound 24, N-[[[4-fluoro-3-(benzoylamino)phenyl]amino]thioxomethyl]-3,4,5-methoxy-benzamide]	> 80%
0.01 to 1 µM	COc1cc(C(=O)NC(=S)Nc2cccc(NC(=O)c3ccc(Cl)cc3)c2)cc(OC)c1OC [Compound 13, N-[[[3-(4-chloro-benzoylamino)phenyl]amino]thioxomethyl]-3,4,5-methoxy-benzamide]	> 80%
–	COc1cc(C(=O)NC(=S)Nc2ccc(Cl)c(C(=O)Nc3ccccc3)c2)cc(OC)c1OC [Compound 25, N-[[[4-chloro-3-(phenylamino)carbonyl]amino]thioxomethyl]-3,4,5-methoxy-benzamide]	> 80%
–	COc1cc(C(=O)NC(=S)Nc2cccc(NC(=O)c3cccs3)c2)cc(OC)c1OC [Compound 15, N-[[[3-(2-thiophenoylamino)phenyl]amino]thioxomethyl]-3,4,5-methoxy-benzamide]	20 to 80%
0.01 to 1 µM	COc1cc(C(=O)NC(=S)Nc2ccc(Cl)c(NC(=O)c3ccccc3)c2)cc(OC)c1OC [Compound 34, N-[[[4-chloro-3-(benzoylamino)phenyl]amino]thioxomethyl]-3,4,5-methoxy-benzamide]	> 80%
1 to 3 µM	COc1cc(OC)c(C(=O)NC(=O)Nc2cccc(NC(=O)c3ccccc3)c2)cc1OC [Compound 48, N-[[[-3-(benzoylamino)phenyl]amino]oxomethyl]-2,4,5-methoxy-benzamide]	20 to 80%
–	O=C(NC(=S)Nc1cccc(NC(=O)c2ccccc2)c1)c1ccc2c(c1)OCCO2 [Compound 28, N-[[[3-(benzoylamino)phenyl]amino]thioxomethyl]-3,4-ethylenedioxo-benzamide]	5 to 20%
0.01 to 1 µM	COc1cc(C(=O)NC(=S)Nc2cccc(-c3cn4ccccc4n3)c2)cc(OC)c1OC [Compound 55, N-(3-(imidazo[1,2-a]pyridin-2-yl)phenylcarbamothioyl)-3,4,5-trimethoxybenzamide]	> 80%
–	COc1cc(C(=O)NC(=S)Nc2cccc(NC(=O)c3ccc4ccccc4c3)c2)cc(OC)c1OC [Compound 9, N-[[[3-(2-naphthoylamino)phenyl]amino]thioxomethyl]-3,4,5-methoxy-benzamide]	20 to 80%
0.01 to 1 µM	COc1cc(C(=O)NC(=O)Nc2cccc(NC(=O)c3ccc(-c4ccccc4)cc3)c2C)cc(OC)c1OC [Compound 45]	> 80%
–	COc1cc(C(=O)NC(=S)Nc2cc(Cl)cc(NC(=O)c3ccccc3)c2)cc(OC)c1OC [Compound 35, N-[[[5-chloro-3-(benzoylamino)phenyl]amino]thioxomethyl]-3,4,5-methoxy-benzamide]	20 to 80%
